Converted amounts (≈) assume the structure as drawn.
Assays:
[1] = Solubility in water; type: physicochemical; conditions: buffer
[2] = Partition coefficient, log P of the compound; type: physicochemical; conditions: octanol/water

| SMILES | Solubility [1] | logP [2] |
| --- | --- | --- |
| Nc1ccc2c3c(cccc13)-c1ccccc1-2 | 0.715 g/L (≈ 3.29 mM) |  |
| Nc1ccc2cc3ccccc3cc2c1 [2-AMINOANTHRACENE] | 1.3 g/L (≈ 6.73 mM) | 2.62 |
| Nc1c(Br)cc([N+](=O)[O-])cc1[N+](=O)[O-] |  | 2.73 |
| Nc1cccc2cc3ccccc3cc12 | 2.59 g/L (≈ 13.4 mM) |  |
| Nc1ccc(Br)cc1 [4-BROMOANILINE] | 707 g/L (≈ 4110 mM) |  |
| Nc1ccc(Cc2ccc(N)cc2)cc1 | 1 10^3g/L |  |
| Nc1ccc2c(c1)Cc1ccccc1-2 | 8.78 g/L (≈ 48.4 mM) |  |
| Cc1cc(-c2ccc(N)c(C)c2)ccc1N [ORTHOTOLIDINE] | 1.3 10^3g/L |  |
| Nc1ccc2ccc3cccc4ccc1c2c34 [AMINOPYRENE] | 0.576 g/L (≈ 2.65 mM) | 4.99 |

Reference: ChEMBL document CHEMBL1139964, “Biopartitioning micellar chromatography to predict mutagenicity of aromatic amines” (Eur J Med Chem, 2007)
